Measurements taken from paper PMC13047053, “Crystal structure of human INPP5K with an allosteric inhibitor reveals the structural basis for species specific potency” (Scientific Reports, 2026).
“Also recorded” adds a separate entry of the source.

Tests used:
Experiment in all cases: Inorganic phosphate detection assay for phosphatase inhibition
Type in all cases: biochemical
hamster INPP5K = biological target: T1, hamster INPP5K (Cricetulus griseus, UniProt G3HTF6); settings: 20 µM diC8-PI(3,4,5)P3, 20 min
T1 construct: hamster INPP5K (aa 1–453, UniProt ID: G3HTF6); FLAG (N); made in house; host or cells: Expi293 cells (pcDNA3.4, transient)
T1 sequence (G3HTF6 1-451): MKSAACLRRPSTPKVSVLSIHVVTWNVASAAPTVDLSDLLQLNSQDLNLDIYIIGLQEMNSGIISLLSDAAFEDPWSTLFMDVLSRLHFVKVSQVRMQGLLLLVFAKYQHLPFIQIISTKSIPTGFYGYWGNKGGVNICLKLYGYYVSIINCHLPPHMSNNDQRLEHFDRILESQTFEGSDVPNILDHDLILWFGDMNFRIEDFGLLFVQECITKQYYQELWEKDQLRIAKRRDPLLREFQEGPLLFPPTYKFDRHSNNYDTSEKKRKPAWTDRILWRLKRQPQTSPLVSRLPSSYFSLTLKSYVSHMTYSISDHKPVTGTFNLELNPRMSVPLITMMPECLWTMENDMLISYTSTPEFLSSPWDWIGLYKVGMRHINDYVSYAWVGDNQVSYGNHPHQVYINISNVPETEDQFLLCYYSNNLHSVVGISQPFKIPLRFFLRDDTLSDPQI
Excerpt: (§1) The protein purification is described in detail elsewhere. Briefly, full-length human INPP5K (amino acids 1–448, UniProt ID: Q9BT40), rat INPP5K (aa 1–446, UniProt ID: Q9R0B6), mouse INPP5K (aa 1–468, UniProt ID: Q8C5L6), hamster INPP5K (aa 1–453, UniProt ID: G3HTF6), guinea pig INPP5K (aa 1–473, UniProt ID: H0V8T7) containing an N-terminal FLAG-tag, full-length human SHIP2 (aa 1–1 258) containing a C-terminal FLAG-tag, and full-length human PIPP (amino acids 1–1 006) containing an N-terminal His8-tag were all cloned into the pcDNA3.4 expression vector and transiently expressed in Expi293 cells (Thermo Fisher Scientific). The PH domain of human TAPP1 (amino acids 180–404) containing an N-terminal GST-tag was expressed in a pGEX6P1 expression vector (GE Healthcare) in E. coli strain BL21 ((Merck KGaA, Darmstadt, Germany)), following IPTG induction at 37 °C for 5 h. All the FLAG-tagged INPP5Ks and hSHIP2 were purified using affinity columns containing DDDDK-tagged protein purification gel (MBL, Medical & Biological Laboratories Co., Ltd., Tokyo, Japan), followed by size-exclusion chromatography with Superdex 200 columns (GE Healthcare). His8-tagged hPIPP was purified using Ni–NTA Superflow (Qiagen) and Superdex 200 columns. The GST-tagged hTAPP1 domain was purified using a Glutathione Sepharose 4B (GE Healthcare) and Superdex 200 columns. The purity of the protein obtained was evaluated using SDS-PAGE.
(§2) The release of inorganic phosphate was measured using a PiPer Phosphate Assay Kit (Thermo Fisher Scientific), according to the manufacturer’s instructions, but with some modifications. Enzyme reactions were performed in a final volume of 10 µL per well in a 384-well nonbinding black plates (Greiner Bio-One International, GmbH, Kremsmünster, Austria). The reaction mixtures containing 20 µM diC8-PI(3,4,5)P₃ and each enzyme (human INPP5K, mouse INPP5K, rat INPP5K, hamster INPP5K, guinea pig INPP5K, human SHIP2, or human PIPP) in reaction buffer (50 mM Tris–HCl pH 7.0, 150 mM NaCl, 7.5 mM MgCl₂, 0.03% Igepal CA-630, 0.03% gelatin), with or without various concentrations of inhibitor, were incubated for 20 min at room temperature. The reactions were then stopped and detection reactions were initiated by adding 5 µL of detection mix 1 (60 mM EDTA, 12 U/mL maltose phosphorylase, and 0.6 mM maltose in 100 mM Tris–HCl pH 8.0). After incubation for 60 min at room temperature, 5 µL of detection mix 2 (8 U/mL glucose oxidase, 0.8 U/mL HRP, and 100 µM Amplex Red in 100 mM Tris–HCl pH 8.0) was added, and the mixture was incubated for a further 30 min at room temperature in the dark. The fluorescence generated was measured using an Envision plate reader at 531/590 nm (excitation/emission), and the percentage inhibition was calculated as described above.

human INPP5K = biological target: T2, human INPP5K (Homo sapiens, UniProt Q9BT40)
T2 construct: full-length human INPP5K (amino acids 1–448, UniProt ID: Q9BT40); FLAG (N); made in house; host or cells: Expi293 cells (pcDNA3.4, transient)
T2 sequence (Q9BT40 1-448): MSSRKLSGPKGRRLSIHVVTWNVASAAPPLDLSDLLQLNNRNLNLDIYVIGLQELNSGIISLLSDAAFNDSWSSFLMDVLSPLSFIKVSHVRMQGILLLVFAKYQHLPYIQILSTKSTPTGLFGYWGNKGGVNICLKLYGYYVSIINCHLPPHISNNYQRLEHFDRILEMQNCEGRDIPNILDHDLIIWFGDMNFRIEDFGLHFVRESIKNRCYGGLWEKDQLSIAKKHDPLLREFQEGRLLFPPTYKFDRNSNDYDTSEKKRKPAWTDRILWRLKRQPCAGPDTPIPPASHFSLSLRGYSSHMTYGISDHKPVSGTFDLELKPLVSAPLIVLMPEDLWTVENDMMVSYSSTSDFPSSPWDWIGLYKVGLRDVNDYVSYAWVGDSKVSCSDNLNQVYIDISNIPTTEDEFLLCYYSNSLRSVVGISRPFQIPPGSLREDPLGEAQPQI
Excerpt: as §1, §2

rat INPP5K = biological target: T3, rat INPP5K (Rattus norvegicus, UniProt A0A0G2K2Z2)
T3 construct: rat INPP5K (aa 1–446, UniProt ID: Q9R0B6); FLAG (N); made in house; host or cells: Expi293 cells (pcDNA3.4, transient)
T3 sequence (A0A0G2K2Z2 1-446): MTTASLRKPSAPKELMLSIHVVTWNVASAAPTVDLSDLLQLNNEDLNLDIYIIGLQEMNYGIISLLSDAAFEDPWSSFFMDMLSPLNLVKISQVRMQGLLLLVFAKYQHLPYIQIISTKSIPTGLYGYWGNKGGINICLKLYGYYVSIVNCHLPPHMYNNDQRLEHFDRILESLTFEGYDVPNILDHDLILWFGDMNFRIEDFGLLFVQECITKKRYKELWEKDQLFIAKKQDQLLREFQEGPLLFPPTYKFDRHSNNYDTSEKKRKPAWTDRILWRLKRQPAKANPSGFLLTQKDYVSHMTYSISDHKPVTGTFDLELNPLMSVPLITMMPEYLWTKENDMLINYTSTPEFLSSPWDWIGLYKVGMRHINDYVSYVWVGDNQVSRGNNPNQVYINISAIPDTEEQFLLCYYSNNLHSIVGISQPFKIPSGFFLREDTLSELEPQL
Excerpt: as §1, §2

[1] = inorganic phosphate detection assay, 20 µM diC8-PI(3,4,5)P3, 20 min

SMILES: CC(C)c1sc(NC(=O)c2ccccc2)c(C(=O)O)c1-c1ccccc1 [CPD-1]
- IC50 (hamster INPP5K): 8.2 µM
- IC50 (human INPP5K; [1]): 2.9 µM
- mode of inhibition of human INPP5K (human INPP5K; result in words): noncompetitive inhibition; also recorded: noncompetitive inhibitor
- IC50 (rat INPP5K; [1]): > 100 µM
- inhibition of rat INPP5K (in words) (rat INPP5K; result in words): no inhibition; also recorded: inactive
